System: 931267-113-T-J1-PDC KRAS spheroid with HUVEC/MSC, viability
Test: Anticancer human tumor 931267-113-T-J1-PDC patient-derived colon adenocarcinoma cell line growth inhibition [KRAS2]
Details: for IC50: curve of first compound; for viability, T/C: stronger effect = lower value
Summary of the method: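 KRAS-mutant tumor cells were grown as spheroids with HUVEC endothelial cells and human MSCs as stroma. Targeted agents were tested alone and with KRAS pathway inhibitors. Doses started at or near clinical Cmax, or 10 microM, descending half-log.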

[1] = second compound 0.1 µM, first compound 0.0316 µM
[2] = second compound 0.1 µM, first compound 0.1 µM
[3] = second compound 0.1 µM, first compound 0.316 µM
[4] = second compound 0.1 µM, first compound 1 µM
[5] = second compound 0.1 µM, first compound 3.16 µM
[6] = second compound 0.1 µM, first compound 10 µM
[7] = second compound 0.316 µM, first compound 0.0316 µM
[8] = second compound 0.316 µM, first compound 0.1 µM
[9] = second compound 0.316 µM, first compound 0.316 µM
[10] = second compound 0.316 µM, first compound 1 µM
[11] = second compound 0.316 µM, first compound 3.16 µM
[12] = second compound 0.316 µM, first compound 10 µM
[13] = second compound 1 µM, first compound 0.0316 µM
[14] = second compound 1 µM, first compound 0.1 µM
[15] = second compound 1 µM, first compound 0.316 µM
[16] = second compound 1 µM, first compound 1 µM
[17] = second compound 1 µM, first compound 3.16 µM
[18] = second compound 1 µM, first compound 10 µM
[19] = second compound 3.16 µM, first compound 0.0316 µM
[20] = second compound 3.16 µM, first compound 0.1 µM
[21] = second compound 3.16 µM, first compound 0.316 µM
[22] = second compound 3.16 µM, first compound 1 µM
[23] = second compound 3.16 µM, first compound 3.16 µM
[24] = second compound 3.16 µM, first compound 10 µM
[25] = second compound 10 µM, first compound 0.0316 µM
[26] = second compound 10 µM, first compound 0.1 µM
[27] = second compound 10 µM, first compound 0.316 µM
[28] = second compound 10 µM, first compound 1 µM
[29] = second compound 10 µM, first compound 3.16 µM
[30] = second compound 10 µM, first compound 10 µM
[31] = second compound 0.1 µM, first compound 0.000316 µM
[32] = second compound 0.1 µM, first compound 0.001 µM
[33] = second compound 0.1 µM, first compound 0.00316 µM
[34] = second compound 0.1 µM, first compound 0.01 µM
[35] = second compound 0.316 µM, first compound 0.000316 µM
[36] = second compound 0.316 µM, first compound 0.001 µM
[37] = second compound 0.316 µM, first compound 0.00316 µM
[38] = second compound 0.316 µM, first compound 0.01 µM
[39] = second compound 1 µM, first compound 0.000316 µM
[40] = second compound 1 µM, first compound 0.001 µM
[41] = second compound 1 µM, first compound 0.00316 µM
[42] = second compound 1 µM, first compound 0.01 µM
[43] = second compound 3.16 µM, first compound 0.000316 µM
[44] = second compound 3.16 µM, first compound 0.001 µM
[45] = second compound 3.16 µM, first compound 0.00316 µM
[46] = second compound 3.16 µM, first compound 0.01 µM
[47] = second compound 10 µM, first compound 0.000316 µM
[48] = second compound 10 µM, first compound 0.001 µM
[49] = second compound 10 µM, first compound 0.00316 µM
[50] = second compound 10 µM, first compound 0.01 µM
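Note: compound exposure lasted 7 days before the readout.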
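Throughout, for viability, T/C: 100% = DMSO vehicle control viability.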

SMILES	IC50 (second compound 0.1 µM) [µM]	IC50 (second compound 0.316 µM) [µM]	IC50 (second compound 1 µM) [µM]	IC50 (second compound 3.16 µM) [µM]	IC50 (second compound 10 µM) [µM]	viability, T/C [1] [%]	viability, T/C [2] [%]	viability, T/C [3] [%]	viability, T/C [4] [%]	viability, T/C [5] [%]	viability, T/C [6] [%]	viability, T/C [7] [%]	viability, T/C [8] [%]	viability, T/C [9] [%]	viability, T/C [13] [%]	viability, T/C [14] [%]	viability, T/C [19] [%]	viability, T/C [20] [%]	viability, T/C [25] [%]	viability, T/C [26] [%]	other results
CC(C)NCC(C(=O)N1CCN(c2ncnc3c2C(C)CC3O)CC1)c1ccc(Cl)cc1 (stereo not given) + CC1OCC2(CCN(c3cnc(Sc4ccnc(N)c4Cl)c(N)n3)CC2)C1N	3.56	3.72	5.16	1.85	2.27	78.8	71.7	87	64.4	53.3	37.3	86.4	73.5	81.7	95	56.9	78.2	77.3	73.8	67.9	viability, T/C [10]: 75.2%; viability, T/C [11]: 53%; viability, T/C [12]: 32.2%; viability, T/C [15]: 75.5%; viability, T/C [16]: 59.4%; viability, T/C [17]: 63.7%; viability, T/C [18]: 39%; viability, T/C [21]: 74.4%; viability, T/C [22]: 56.3%; viability, T/C [23]: 44.6%; viability, T/C [24]: 35%; viability, T/C [27]: 76.7%; viability, T/C [28]: 52.8%; viability, T/C [29]: 48.8%; viability, T/C [30]: 22.5%
CC(C)n1nc(-c2ccc3oc(N)nc3c2)c2c(N)ncnc21 + CC1OCC2(CCN(c3cnc(Sc4ccnc(N)c4Cl)c(N)n3)CC2)C1N	0.00438	0.00313	0.00353	0.0036	0.00713	27.6	26.1	–	–	–	–	19.9	16.7	–	25.7	18.7	27	15.6	19.9	22.5	viability, T/C [31]: 90%; viability, T/C [32]: 81.6%; viability, T/C [33]: 49.5%; viability, T/C [34]: 42.8%; viability, T/C [35]: 85.2%; viability, T/C [36]: 76.3%; viability, T/C [37]: 44.7%; viability, T/C [38]: 34.9%; viability, T/C [39]: 79.7%; viability, T/C [40]: 66.9%; viability, T/C [41]: 51.3%; viability, T/C [42]: 36.8%; viability, T/C [43]: 68.4%; viability, T/C [44]: 64.1%; viability, T/C [45]: 46.1%; viability, T/C [46]: 43.9%; viability, T/C [47]: 66.5%; viability, T/C [48]: 77.7%; viability, T/C [49]: 62.2%; viability, T/C [50]: 45.3%
CC1(C)CCC(CN2CCN(c3ccc(C(=O)NS(=O)(=O)c4ccc(NCC5CCOCC5)c([N+](=O)[O-])c4)c(Oc4cnc5[nH]ccc5c4)c3)CC2)=C(c2ccc(Cl)cc2)C1 + CC1OCC2(CCN(c3cnc(Sc4ccnc(N)c4Cl)c(N)n3)CC2)C1N	1.71	1.64	1.74	1.67	1.66	104	84.1	87.8	75.7	20.9	8.53	91	81.3	73.2	84.9	75.9	61.1	77.8	83.7	77	viability, T/C [10]: 72.8%; viability, T/C [11]: 20.7%; viability, T/C [12]: 3.06%; viability, T/C [15]: 67.5%; viability, T/C [16]: 81.3%; viability, T/C [17]: 20.5%; viability, T/C [18]: 1.45%; viability, T/C [21]: 70.2%; viability, T/C [22]: 70.6%; viability, T/C [23]: 25%; viability, T/C [24]: 0.6%; viability, T/C [27]: 94.5%; viability, T/C [28]: 85.9%; viability, T/C [29]: 5.34%; viability, T/C [30]: 0.28%
Cn1ncnc1[C@H]1c2n[nH]c(=O)c3cc(F)cc(c23)N[C@@H]1c1ccc(F)cc1 + CC1OCC2(CCN(c3cnc(Sc4ccnc(N)c4Cl)c(N)n3)CC2)C1N	> 0.1	> 0.1	> 0.1	> 0.1	> 0.1	90.3	80.5	–	–	–	–	60.8	68.4	–	70.3	51.2	91.4	69.7	71	51	viability, T/C [31]: 93.9%; viability, T/C [32]: 97.8%; viability, T/C [33]: 89.2%; viability, T/C [34]: 89.3%; viability, T/C [35]: 84%; viability, T/C [36]: 91.4%; viability, T/C [37]: 91.2%; viability, T/C [38]: 78.9%; viability, T/C [39]: 85.8%; viability, T/C [40]: 85.3%; viability, T/C [41]: 85.4%; viability, T/C [42]: 95.2%; viability, T/C [43]: 83.7%; viability, T/C [44]: 93.5%; viability, T/C [45]: 84.7%; viability, T/C [46]: 80.6%; viability, T/C [47]: 77.6%; viability, T/C [48]: 73.5%; viability, T/C [49]: 85.3%; viability, T/C [50]: 77.8%

Source: PubChem BioAssay AID1963863 (Molecular Pharmacology Branch, DTP, NCI, 2024)
